# Measurements from US20210290788A1, “RADIOIMMUNOCONJUGATES AND DNA DAMAGE AND REPAIR INHIBITOR COMBINATION THERAPY” (Fusion Pharmaceuticals Inc., priority 2018, published 2021).
# Assays:
# [1] = tested on: Colo-205 (colorectal cancer) xenograft model; assay: Example 3 in vivo efficacy of olaparib as single agent, Colo-205 xenograft
# Method: (§1) An in vivo efficacy study was conducted with olaparib alone as a single agent. Olaparib was given as a single agent at different doses in a Colo-205 (colorectal cancer) xenograft model and in an A549 (NSCLC) xenograft model. Groups of animals (n=5) were dosed with olaparib (i.p.) 5 days on, 2 days off using 10-100 mg/kg doses.
# [2] = tested on: A549 (NSCLC) xenograft model; assay: Example 3 in vivo efficacy of olaparib as single agent, A549 xenograft
# Method: as §1
# [3] = tested on: y-H2AX foci; assay: Example 3 immunohistochemical analysis of y-H2AX foci; format: in vivo; conditions: after olaparib treatment; Colo-205 and A549 xenograft study
# Method: as §1
# [4] = tested on: Colo-205 (colorectal cancer) xenograft model; assay: Example 4 in vivo synergy study, olaparib dosing schedule 1, Colo-205 xenograft; conditions: [225Ac]-FPI-1434 50 nCi, olaparib 50 mg/kg i.p. 5 days on, 2 days off for 28 days, pre-dosed 3 times prior to FPI-1434, up to 28 days
# Method: (§2) Combination groups (n=5) were dosed with olaparib (i.p.) 5 days on, 2 days off, using a 50 mg/kg dose for 28 days. Animals were pre-dosed with olaparib 3 times prior to the [^225Ac]-FPI-1434 administration.
# (§3) Relative tumor volume was evaluated up to 28 days after administration.
# [5] = tested on: A549 (NSCLC) xenograft model; assay: Example 4 in vivo synergy study, olaparib dosing schedule 1, A549 xenograft; conditions: [225Ac]-FPI-1434 200 nCi, olaparib 50 mg/kg i.p. 5 days on, 2 days off for 28 days, pre-dosed 3 times prior to FPI-1434, up to 28 days
# Method: as §2
# [6] = tested on: Colo-205 (colorectal cancer) xenograft model; assay: Example 5 in vivo synergy study, olaparib dosing schedule 2, Colo-205 xenograft; conditions: FPI-1434 50 nCi, olaparib 50 mg/kg i.p. 5 days on, 2 days off for 28 days, first dose 24 hours after FPI-1434, up to 28 days
# Method: Combination groups (n=5) were dosed with olaparib (i.p.) 5 days on, 2 days off, using a 50 mg/kg dose for 28 days. The first dose of olaparib was administered 24 hours following FPI-1434 administration.
# as §3
# [7] = tested on: Colo-205 (colorectal cancer) xenograft model; assay: Example 6 in vivo combination study at multiple dose levels, Colo-205 xenograft; conditions: lower effective doses: [225Ac]-FPI-1434 20 nCi, olaparib 25 mg/kg i.p. 5 days on, 2 days off from 24 hours after FPI-1434 until day 30
# Method: An in vivo study was conducted with [^225Ac]-FPI-1434 and olaparib in a Colo-205 (colorectal cancer) xenograft model, with [^225Ac]-FPI-1434 administered at a dose of 20 nCi, 50 nCi, or 100 nCi. In combination groups (n=5), animals were dosed with olaparib (i.p.) starting at 24 hours after [^225Ac]-FPI-1434 administration according to a 5 days on, 2 days off schedule using 25 or 50 mg/kg doses until day 30 after [^225Ac]-FPI-1434 administration (“day 0”).
# Relative tumor volume was evaluated at various time points after administration. […] FIG. 13A-13C show results using 20 nCi (FIG. 13A), 50 nCi (FIG. 13B), or 100 nCi (FIG. 13C) [^225Ac]-FPI-1434 with olaparib (25 mg/kg or 50 mg/kg).
# [8] = olaparib i.p. 5 days on, 2 days off, 10-100 mg/kg
structure (smiles),measurement,setting,value
O=C(c1cc(Cc2n[nH]c(=O)c3ccccc23)ccc1F)N1CCN(C(=O)C2CC2)CC1 [olaparib],Dose response of tumor volume effect,[1]; olaparib 10-100 mg/kg doses,did not appear to be a dose response
same,Relative tumor volume (efficacy as a single agent),[1]; [8],modest efficacy as a single agent
same,Dose response of tumor volume effect,[2]; olaparib 10-100 mg/kg doses,did not appear to be a dose response
same,Relative tumor volume (efficacy as a single agent),[2]; [8],modest efficacy as a single agent
same,"DSB formation (y-H2AX foci, immunohistochemical analysis)",[3],no increase in DSB formation
same,Relative tumor volume,[4],some reduction in tumor volume over time
same,Relative tumor volume,[5],no apparent difference in tumor volume over time
same,Relative tumor volume,[6],significant reduction in tumor volume overtime
same,Relative tumor volume,[7],no or limited therapeutic effect
